Several values for one entry are separate records, joined by “and”; a condition that tells them apart may be missing. Equal values may be shown once.

The target of one data set is streptavidin (STR) (Streptomyces avidinii, UniProt P22629). In words: Protein labeling with reactive dye, degree of substitution on streptavidin. Conditions: for Degree of Substitution: STR. The protocol: Protein conjugates of sulforhodamine 101 are prepared using Compound 2 (Example 2). The degree of substitution achieved on the selected proteins (bovine serum albumin (BSA), goat anti-mouse IgG (GAM) or streptavidin (STR)) is then determined.
A fresh solution of the desired protein is prepared that is 10 mg protein/mL in 0.1 M sodium bicarbonate. The labeling reagent (Compound 2) is dissolved in DMF to give a concentration of 10 mg dye/mL. Predetermined amounts of the labeling reagent in DMF are slowly added to the protein solution with stirring. A molar ratio of 10 equivalents dye to equivalent of protein is typical, though the optimal amount varies with particular labeling reagent and protein being labeled. The reaction mixture is incubated at room temperature for one hour. The dye-protein conjugate is separated from free unreacted reagent by gel filtration on a CELLUFINE GH-25 column equilibrated in PBS. The initial, protein-containing colored band is collected from the column, and the degree of substitution is determined by measuring the absorbance of the conjugate at 595 nm, and calculating the degree of substitution using an extinction coefficient of 80,000 cm^−1M^−1 for the dye.
Dye conjugates are similarly prepared using SSC excepting that the protein solution is maintained at pH 9, and the labeling reaction is conducted at ice bath temperatures to minimize hydrolysis of the labeling reagent.

For data set [1] the following is noted: 90% DMF and 10% aqueous sodium bicarbonate; two hours of incubation; TLC.
Experimental: Compound 2 and SSC are separately dissolved in solutions that are 90% DMF and 10% aqueous sodium bicarbonate. Each solution is analyzed using thin layer chromatography (TLC) as follows: An aliquot from each sample is diluted 1:100 in methanol and 1 μL of the resulting solution is spotted on a silica gel TLC plate and developed in 15% methanol in chloroform.
The target in data set [2] is bovine serum albumin (BSA) (Bos taurus, UniProt P02769). Nature of the data set: Protein labeling with reactive dye, degree of substitution on BSA. The conditions noted are these: Dye:Protein Ratio 15.
Sequence of bovine serum albumin (BSA) (P02769 25-607): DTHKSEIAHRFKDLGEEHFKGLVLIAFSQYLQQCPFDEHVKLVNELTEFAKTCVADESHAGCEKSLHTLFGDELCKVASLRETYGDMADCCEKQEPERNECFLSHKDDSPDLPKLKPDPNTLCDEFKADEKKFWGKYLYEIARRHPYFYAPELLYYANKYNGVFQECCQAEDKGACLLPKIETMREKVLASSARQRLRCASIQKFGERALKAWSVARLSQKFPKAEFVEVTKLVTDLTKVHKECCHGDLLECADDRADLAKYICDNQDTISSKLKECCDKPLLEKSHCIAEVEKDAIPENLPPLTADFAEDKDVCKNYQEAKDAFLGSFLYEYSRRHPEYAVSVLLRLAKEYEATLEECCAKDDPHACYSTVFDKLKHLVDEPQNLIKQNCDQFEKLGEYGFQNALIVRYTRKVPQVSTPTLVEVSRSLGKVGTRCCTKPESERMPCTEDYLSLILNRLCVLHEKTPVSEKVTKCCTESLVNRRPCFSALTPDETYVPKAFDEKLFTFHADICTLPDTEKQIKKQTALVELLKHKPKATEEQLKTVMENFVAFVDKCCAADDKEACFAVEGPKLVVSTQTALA
Experimental: A fresh solution of the desired protein is prepared that is 10 mg protein/mL in 0.1 M sodium bicarbonate. […] Predetermined amounts of the labeling reagent in DMF are slowly added to the protein solution with stirring. A molar ratio of 10 equivalents dye to equivalent of protein is typical, though the optimal amount varies with particular labeling reagent and protein being labeled. The reaction mixture is incubated at room temperature for one hour. The dye-protein conjugate is separated from free unreacted reagent by gel filtration on a CELLUFINE GH-25 column equilibrated in PBS. The initial, protein-containing colored band is collected from the column, and the degree of substitution is determined by measuring the absorbance of the conjugate at 595 nm, and calculating the degree of substitution using an extinction coefficient of 80,000 cm^−1M^−1 for the dye.

Sequence of streptavidin (STR) (P22629 25-183, species assumed): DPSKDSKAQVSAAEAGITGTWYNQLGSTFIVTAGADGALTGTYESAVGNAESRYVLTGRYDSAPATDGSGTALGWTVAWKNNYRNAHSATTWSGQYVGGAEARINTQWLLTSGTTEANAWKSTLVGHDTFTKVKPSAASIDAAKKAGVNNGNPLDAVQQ

Take “streptavidin conjugates of SSC: two streptavidin conjugates prepared with SSC [reference compound]”: the “Degree of substitution of the streptavidin conjugates used as immunoreagents” value with streptavidin (STR) (two conjugates used in Example 24) was 2.4 dyes per mole and 3.9 dyes per mole.
With `O=C(CCCCCNS(=O)(=O)c1ccc(C2=c3cc4c5c(c3Oc3c2cc2c6c3CCCN6CCC2)CCC[N+]=5CCC4)c(S(=O)(=O)[O-])c1)ON1C(=O)CCC1=O` [Compound 2], the “Decomposition in the presence of water” value in data set [1] is recorded as 10-20%. For the same molecule, the “Degree of Substitution” value in data set [2] amounted to 4.5; on streptavidin (STR) (Dye:Protein Ratio 1), 0.76; at streptavidin (STR) (Dye:Protein Ratio 2.5) it was 1.6; at streptavidin (STR) (Dye:Protein Ratio 5.5), 4.4; on streptavidin (STR) (Dye:Protein Ratio 8.0) it was 5.6; on streptavidin (STR) (Dye:Protein Ratio 10) it was 6.0. Moreover, the figures for the “Degree of Substitution” value at streptavidin (STR) (Dye:Protein Ratio 20) and at streptavidin (STR) (Dye:Protein Ratio 30) were 6.0 and 6.9, respectively.
Turning to “sulfonyl chloride of sulforhodamine 101 [SSC, reference compound]”, the “Degree of Substitution” value was determined as 3.2 in data set [2]; 0.066 on streptavidin (STR) (Dye:Protein Ratio 1); 1.2 on streptavidin (STR) (Dye:Protein Ratio 2.5); 2.4 at streptavidin (STR) (Dye:Protein Ratio 5.5); 3.0 at streptavidin (STR) (Dye:Protein Ratio 8.0); 3.9 on streptavidin (STR) (Dye:Protein Ratio 10). Also, the “Degree of Substitution” value at streptavidin (STR) (Dye:Protein Ratio 20) was 4.9; at streptavidin (STR) (Dye:Protein Ratio 30), 5.1.

These data come from patent publication US6562632B1, “Reactive derivatives of sulforhodamine 101 with enhanced hydrolytic stability” (Molecular Probes, Inc., priority 1995, dated 2003).
